This note sets out measurements from patent US9173892B2, “Acadesine derivatives, products and compositions including same, therapeutic uses thereof, and methods for synthesizing same” (Universite Nice Sophia Antipolis, priority 2011, dated 2015).

Counter-ions that a name gives are not always drawn.

Holding throughout (format): cell-based, human
For test [1], the system named is K562 cells. Description: cell viability (XTT) of imatinib-sensitive K562 cells. As to conditions: for viability at 500 µM / IC50 / efficacy in dose-response experiment (number of viable cells): K562; for viability at 500 µM: 0.5 mM, 24 hours, read-out: percentage of viable cells; for viability at 500 µM / IC50: XTT; for IC50: dose-response 5, 10, 25 and 50 μM, 24 or 48 hours, Example 1 (Table 1 codes); for efficacy in dose-response experiment (number of viable cells): 5, 10, 25 and 50 μM, compounds effective at concentrations as low as 5 μM. On the procedure: (§1) The K562 leukemic cell line is obtained from the pleural effusion of a patient with CML. This line is a good model for studying this disease. […] The K562 and ImaR cells are cultivated at 37° C. under 5% CO2 in an RPMI 1640 medium containing 5% fetal bovine serum and supplemented with sodium pyruvate and antibiotics (penicillin-streptomycin).
(§2) FIGS. 1 to 4 reflect the study of the cell viability.
(§3) After the addition of XTT reagent, the absorbance is measured at 490 nm.
as §3, §3
After adding XTT reagent, the absorbance is measured at 490 nm.

In test [2] the test system is ImaR cells. The test can be described thus: cell viability (XTT) of imatinib-resistant ImaR cells. The following applies: for efficacy in dose-response experiment (number of viable cells): 5, 10, 25 and 50 μM, compounds effective at concentrations as low as 5 μM; for viability at 500 µM / IC50: Homo sapiens, XTT; for viability at 500 µM: 0.5 mM, 24 hours, read-out: percentage of viable cells; for IC50: dose-response 5, 10, 25 and 50 μM, 24 or 48 hours, Example 1 (Table 1 codes). On the procedure: as §1, §2, §3, §3

The subject of test [3] is K562 cells. The test can be described thus: flow cytometry analysis of the cell cycle, K562 cells. The following applies: for cells in phase G0/G1 / cells in the subG1 phase: 24 hours, imatinib 3 μM, 112 at 2.5 μM, 15, 23, 49 at 10 μM; for proportion of cells in the G2/M phase: 24 hours, 82, 86, 112 at 2.5 μM, 15, 23, 191, 49 at 10 μM. On the procedure:
The x-axis of the graph of FIG. 9 corresponds to the quantity of DNA marked with propidium iodide while the y-axis corresponds to the number of cells. […] The nuclei are marked with propidium iodide, then the proportion of cells in the different phases of the cell cycle (subG1, G0/G1, S, G2/M) is determined.

In test [4] the test system is ImaR cells. Description: flow cytometry analysis of the cell cycle, ImaR cells. The following applies: for cells in phase G0/G1 / cells in the subG1 phase: 24 hours, imatinib 3 μM, 112 at 2.5 μM, 15, 23, 49 at 10 μM; for proportion of cells in the G2/M phase: 24 hours, 82, 86, 112 at 2.5 μM, 15, 23, 191, 49 at 10 μM. Here is the method:
The x-axis of the graph of FIG. 9 corresponds to the quantity of DNA marked with propidium iodide while the y-axis corresponds to the number of cells. […] The nucleii are marked with propidium iodide, then the proportion of cells in the different phases of the cell cycle (subG1, G0/G1, S, G2/M) is determined.

Test [5] deals with caspase-9. Description: caspase-9 activity (Ac-LEHD-AMC) in K562 cells. As to conditions: for caspase-9 activity: K562, 24 hours, imatinib 3 μM, 112 2.5 μM, 15 and 23 10 μM; for pathway relaying the induced apoptosis: conclusion of Example 1, K562 and ImaR cells. Here is the method:
(§4) The cells are lyzed and the caspase-9 activities are measured using 10 μg of proteins and Ac-LEHD-AMC. The fluorescence emission at 460 nm resulting from the release of AMC is then recorded.

Test [6] relates to caspase-9. Description: caspase-9 activity (Ac-LEHD-AMC) in ImaR cells. The following applies: 24 hours, imatinib 3 μM, 112 2.5 μM, 15 and 23 10 μM. Here is the method:
as §4

Test [7] has as its system K562 cells. Description: western blot of apoptosis and autophagy markers, K562 cells. The following applies: for expression of p62/SQSTM1 / PARP cleavage (fragment at 85 kDa) / LC3 cleavage (LC3-I into LC3-II): K562, 24 hours; for expression of p62/SQSTM1 / LC3 cleavage (LC3-I into LC3-II): AICAR 1 mM; for expression of p62/SQSTM1: 82, 86, 112 at 2.5 μM, 15, 23, 191 at 10 μM; for PARP cleavage (fragment at 85 kDa): imatinib 3 μM, 112 at 2.5 μM, 15, 23, 49 at 10 μM; for type of programmed cell death induced: conclusion of Example 1, K562 and ImaR cells; for LC3 cleavage (LC3-I into LC3-II): 82, 86 at 2.5 μM, 15, 23, 191, 49 at 10 μM. Here is the method: (§5) The cells are lyzed and 35 μg of proteins are separated by SDS-PAGE (12 or 14% polyacrylamide gel) and analyzed by western blot with antibodies specific to each of the markers.

Test [8] has as its system ImaR cells. The test can be described thus: western blot of apoptosis and autophagy markers, ImaR cells. As to conditions: 24 hours; for expression of p62/SQSTM1: AICAR 1 mM, 82, 86, 112 at 2.5 μM, 15, 23, 191 at 10 μM; for PARP cleavage (fragment at 85 kDa): imatinib 3 μM, 112 at 2.5 μM, 15, 23, 49 at 10 μM; for LC3 cleavage (LC3-I into LC3-II): AICAR 1 mM, 82, 86 at 2.5 μM, 15, 23, 191, 49 at 10 μM. On the procedure:
as §5

In test [9] the test system is cathepsin-B. The test can be described thus: cathepsin-B activity (z-RR-AMC) in K562 cells. As to conditions: 24 hours, AICAR 1 mM, 82, 112 at 2.5 μM, 15, 23, 191 at 10 μM. Here is the method: (§6) The cells are lyzed and 5 μg of proteins are placed in the presence of z-RR-AMC in a 96-well plate. The fluorescence emission at 460 nm resulting from the release of AMC is then recorded.

Test [10] concerns cathepsin-B. The test can be described thus: cathepsin-B activity (z-RR-AMC) in ImaR cells. The following applies: 24 hours, AICAR 1 mM, 82, 112 at 2.5 μM, 15, 23, 191 at 10 μM. On the procedure: as §6
The subject of test [11] is mTOR pathway. The test can be described thus: western blot of 4E-BP1 phosphorylation (mTOR pathway), K562 cells. The following applies: 24 hours, imatinib 3 μM, AICAR 1 mM, 82, 112 at 2.5 μM, 15, 23, 191 at 10 μM. Here is the method: (§7) The cells are lyzed and 30 μg of proteins are separated by SDS-PAGE (13% polyacrylamide gel) and analyzed by western blot with an antibody specific to the 4E-BP1 protein. The delayed gel migration observed reflects the level of phosphorylation of 4E-BP1.

In test [12] the test system is mTOR pathway. Description: western blot of 4E-BP1 phosphorylation (mTOR pathway), ImaR cells. As to conditions: 24 hours, imatinib 3 μM, AICAR 1 mM, 82, 112 at 2.5 μM, 15, 23, 191 at 10 μM. Here is the method:
as §7

In test [13] the test system is caspase-3. The test can be described thus: caspase-3 activity (Ac-DEVD-AMC) in ImaR cells. As to conditions: 24 hours, imatinib 3 μM, AICAR 1 mM, 112 at 2.5 μM, 15, 23, 49 at 10 μM. On the procedure:
The cells are lyzed and 10 μg of proteins are placed in the presence of Ac-DEVD-AMC in a 96-well plate. The fluorescence emission at 460 nm resulting from the release of AMC is then recorded.

With `CCOC(=O)C#Cc1c(C(=O)OCC)nnn1Cc1ccc(C)cc1` [Compound 112, 1-(4-methylbenzyl)-4-ethoxycarbonyl-5-ethyl propiolate-1,2,3-triazole], in [1] (Homo sapiens), the viability at 500 µM was less than 10% and the IC50 was roughly 2.5 µM. The “efficacy in dose-response experiment (number of viable cells)” value (“efficacy in dose-response experiment” for short) in test [1] is “particularly effective”. Moreover, in test [2], the “efficacy in dose-response experiment” value is “particularly effective”, the viability at 500 µM was less than 10% and the IC50 is roughly 2.5 µM. Moreover, in [3], the “cells in phase G0/G1” value is listed as “reduction” and the “cells in the subG1 phase” value is “very pronounced accumulation”. In addition, in [4], the “cells in phase G0/G1” value was “reduction” and the “cells in the subG1 phase” value is given as “very pronounced accumulation”. In addition, in test [5], the caspase-9 activity result is “activation” and the “pathway relaying the induced apoptosis” value is “intrinsic pathway”. In [6], the caspase-9 activity result was “activation”. In addition, in test [7], the “expression of p62/SQSTM1” value is on record as “increase in the expression”, the “PARP cleavage (fragment at 85 kDa)” value was “appearance of the characteristic cleavage fragment at 85 kDa” and the “type of programmed cell death induced” value is on record as “apoptosis alone”. Further, in [8], the “expression of p62/SQSTM1” value is “increase in the expression” and the “PARP cleavage (fragment at 85 kDa)” value is given as “appearance of the characteristic cleavage fragment at 85 kDa”.

`CCOC(=O)c1nnn(C2OC(COC(C)=O)C(OC(C)=O)C(OC(C)=O)C2OC(C)=O)c1I` [Compound 191, 1′-(4-ethoxycarbonyl-5-iodo-[1,2,3]-triazol-1-yl)-2′,3′,4′,6′-tetra-O-acetyl-β-D-glucopyranose]: in test [1] (Homo sapiens), the viability at 500 µM is less than 10% and the IC50 is roughly 10 µM. The “efficacy in dose-response experiment” value in test [1] was “particularly effective”. In [2], the “efficacy in dose-response experiment” value is recorded as “particularly effective”, the viability at 500 µM was less than 10% and the IC50 is roughly 10 µM. In test [7], the “expression of p62/SQSTM1” value is listed as “increase in the expression”, the “LC3 cleavage (LC3-I into LC3-II)” value was “cleaved” and the “type of programmed cell death induced” value was “autophagy alone”. In test [8], the “expression of p62/SQSTM1” value is recorded as “increase in the expression” and the “LC3 cleavage (LC3-I into LC3-II)” value is reported as “cleaved”. Besides, the “increase in the cathepsin-B activity (factor)” value (shortened to “increase … (factor)”) in [9] is listed as “around 2”. The “increase … (factor)” value in [10] is “around 2”.

Turning to `Cc1ccc(NC(=O)c2ccc(CN3CCN(C)CC3)cc2)cc1Nc1nccc(-c2cccnc2)n1` [imatinib, imatinib mesylate, reference compound], the cytotoxicity at 1 µM in test [1] (Homo sapiens, K562, 48 h, read-out: cell viability loss) was greater than 50%. The cell viability entry in test [2] (imatinib 1 μM, 48 hours) was “affected only slightly”. For the same molecule, the “cells in phase G0/G1” value in [3] is “increase”; in test [4] it was “not observed”. The entries for the “cells in the subG1 phase” value in [3] and in test [4] were “small fraction of cells is also accumulated” and “not observed”, respectively. Besides, the values for the caspase-9 activity result in test [5] and in test [6] were “strong increase” and “not the case”, respectively. Also, in [11], the “phosphorylation of 4E-BP1” value was “totally inhibits”.

For the molecule `CCOC(=O)c1nnn([C@@H]2O[C@H](COC(C)=O)[C@@H](OC(C)=O)[C@H]2OC(C)=O)c1-c1cccs1` [Compound 82, 1′-(4-ethoxycarbonyl-5-(2-thienyl)-[1,2,3]-triazol-1-yl)-2′,3′,5′-tri-O-acetyl-β-D-ribofuranose], the viability at 500 µM in test [1] (Homo sapiens) and in [2] was less than 10% throughout. Besides, the IC50 in test [1] (Homo sapiens) and in test [2] was roughly 2.5 µM throughout. The “efficacy in dose-response experiment” value in test [1] and in test [2] was “particularly effective” in each case. In addition, the “proportion of cells in the G2/M phase” value in [3] and in test [4] was “increase” in each case. Besides, the “expression of p62/SQSTM1” value in test [7] and in [8] was “increase in the expression” in each case. In addition, the “LC3 cleavage (LC3-I into LC3-II)” value in [7] and in test [8] was “cleaved” each time. The “type of programmed cell death induced” value in test [7] was “autophagy alone”. In addition, the “phosphorylation of 4E-BP1” value in [11] and in [12] was “total reduction” each time. The “increase … (factor)” value in [9] and in [10] was “around 2” in each case.

Take `CCOC(=O)C#Cc1c(C(=O)OCC)nnn1[C@@H]1O[C@H](COC(C)=O)[C@@H](OC(C)=O)[C@H]1OC(C)=O` [Compound 49, 1′-(4-ethoxycarbonyl-5-ethyl propiolate-[1,2,3]-triazol-1-yl)-2′,3′,5′-tri-O-acetyl-β-D-ribofuranose]: in [1] (Homo sapiens), the viability at 500 µM is less than 10% and the 50% inhibitory concentration (IC50) was roughly 10 µM. The “efficacy in dose-response experiment” value in test [1] is “particularly effective”. In test [2], the “efficacy in dose-response experiment” value is on record as “particularly effective”, the viability at 500 µM was less than 10% and the IC50 was roughly 10 µM. For the same molecule, in test [3], the “proportion of cells in the G2/M phase” value is reported as “increase”, the “cells in phase G0/G1” value is given as “reduction” and the “cells in the subG1 phase” value is “very pronounced accumulation”. In test [4], the “proportion of cells in the G2/M phase” value is “increase”, the “cells in phase G0/G1” value is “reduction” and the “cells in the subG1 phase” value is “very pronounced accumulation”. The “increase in the caspase-3 activity (factor with respect to the control)” value in test [13] is recorded as “increase”. Also, in test [5], the “pathway relaying the induced apoptosis” value is given as “intrinsic pathway”. Also, in test [7], the “LC3 cleavage (LC3-I into LC3-II)” value is “cleaved”, the “PARP cleavage (fragment at 85 kDa)” value is “appearance of the characteristic cleavage fragment at 85 kDa” and the “type of programmed cell death induced” value is reported as “combination of the two types of mechanisms”. Besides, in test [8], the “LC3 cleavage (LC3-I into LC3-II)” value was “cleaved” and the “PARP cleavage (fragment at 85 kDa)” value is “appearance of the characteristic cleavage fragment at 85 kDa”.
